Experimental data taken from patent US4469681A, “Method and system for the controlled release of biologically active substances to a body fluid” (The Rockefeller University, priority 1981, dated 1984).

Experiments:
blood glucose = assay: Blood-glucose depression assay modified from the U.S. Pharmacopeia; type: in vivo; settings: 60 minutes after injection; for Blood glucose depression: 0.1 mg protein/100 gm body weight subcutaneous after overnight fast
Source text: weight by subcutaneous injection.
injection using a Beckman Glucose Analyzer 2.

Concanavalin A = Concanavalin A (Canavalia ensiformis, UniProt P02866); assay: Binding to and glucose displacement from immobilized Concanavalin A columns; design: species or system Jack Bean
Procedure: At the point indicated by the arrow, 0.2M glucose in the column buffer was begun. Fractions (2.0 ml) were collected at a flow rate of 10-15 ml/h.
Displacement of hormone was accomplished using 1.0 ml pulses of column buffer containing varying amounts of glucose. Glucose content is indicated over the appropriate arrows. Fractions (1.7 ml) were collected at a flow rate of 10-15 ml/h.

## Control insulin: porcine insulin (Lilly), unmodified
Blood glucose; Animal A
  Blood glucose depression: 75 mg %
Blood glucose; Animal B
  Blood glucose depression: 70 mg %
Blood glucose; Animal C
  Blood glucose depression: 79 mg %
Blood glucose; Animal D
  Blood glucose depression: 79 mg %
Blood glucose; Animal E
  Blood glucose depression: 64 mg %
Blood glucose; Animal F
  Blood glucose depression: 73 mg %
Blood glucose; Mean of animals A-F, 0.1 mg protein/100 gm body weight subcutaneous
  Blood glucose depression, Mean ± S.E.M.: 73.33 ± 2.35 mg %
Concanavalin A; 20 mg applied to column, buffer 1 mM MgCl2, 1 mM CaCl2, 50 mM NaCl, 25 mM sodium phosphate, pH 7.4
  Binding to immobilized Concanavalin A: did not bind
Concanavalin A; 0.2M glucose in column buffer, 1,000:1 molar excess of glucose
  Displacement from Concanavalin A binding sites by glucose: none was eluted by the addition of glucose
